Measurements as given in patent US8105431B2, “Subphthalocyanine derivative having phosphorus derivative as axially substituted group, method for manufacturing the same and optical film using the same” (Orient Chemical Industries, Ltd., priority 2008, dated 2012).

Tests used:
Type in all cases: physicochemical
[1] = Absorption measurement in chloroform (maximum absorption wavelength, molar absorbance coefficient); conditions: for Molar Absorbance Coefficient: 1 cm cell
Method: Measuring methods of the molar absorbance coefficient of the subphthalocyanine derivatives having the phosphorus derivative-substituted group obtained in the Examples 1-9 and the halo boron subphthalocyanine obtained in Synthesis Examples 1-4 were carried out as follows.
10.0 mg of the obtained compound was completely dissolved in 100 ml of chloroform. Then 10 ml of the solution was diluted with 100 ml of chloroform. Thus the absorbance of the obtained solution was measured using spectrophotometer (UV-1700 available from Shimadzu Corporation). Molar absorbance coefficient • was calculated using the following equation: A=•×C×l (A: absorbance, C: concentration (mol/L), l: light path (cm)) In the measurement, light pass length of the cell is 1 cm long.

[2] = Dissolution in coating solution for film manufacture; conditions: 0.5 parts in 68.5 parts cyclohexanone and 30 parts methyl ethyl ketone with 1.0 parts polycarbonate
Method: 0.5 parts of Compound 1 obtained in Example 1 and 1.0 parts of polycarbonate were added into 68.5 parts of cyclohexanone and 30 parts of methyl ethyl ketone and stirred and dissolved to obtain a coating solution.
A film was manufactured in the same way as in Example 10 except that Intermediate Compound 1 obtained in Synthesis Example 1 was used in place of Compound 1 in Example 10.

[3] = Solubility to methyl ethyl ketone; conditions: for solubility (in words): compared with the halo boron intermediate compounds

Row | Compound | Maximum Absorption Wavelength [1] [nm] | Molar Absorbance Coefficient [1] | dissolution in coating liquid [2] | Solubility ([3]; Solvent: Methyl Ethyl Ketone) [wt %] | solubility (in words) ([3]; methyl ethyl ketone) | Solubility ([3]; methyl ethyl ketone)
1 | (i-C5H11S)3 SubPcBCl [Intermediate Compound 6, reference compound] | 587.5 | 5.82 ×10^−4 Lmol^−1cm^−1 |  |  |  | 
2 | (PhS)3SubPcBCl [Intermediate Compound 11, reference compound] | 586.0 | 7.58 ×10^−4 Lmol^−1cm^−1 |  |  |  | 
3 | ClB1n2c3c4ccccc4c2/N=C2N=C(/N=c4/c5ccccc5c(n41)=N3)c1ccccc1\2 [Intermediate Compound 1, SubPcBCl, reference compound] | 565.0 | 5.10 ×10^−4 Lmol^−1cm^−1 | could not be fully dissolved | 0.003 |  | 
4 | O=P(OB1n2c3c4ccccc4c2/N=C2N=C(/N=c4/c5ccccc5c(n41)=N3)c1ccccc1\2)(c1ccccc1)c1ccccc1 [Compound 1, SubPcBOPOPh2] | 564.0 | 7.69 ×10^−4 Lmol^−1cm^−1 |  | 0.44 | remarkably improved | 
5 | (t-Bu)3SubPcBOPO(OBu)2 [Compound 7] | 568.0 | 7.62 ×10^−4 Lmol^−1cm^−1 |  | >10 |  | 
6 | O=P(OB1n2c3c4ccccc4c2/N=C2N=C(/N=c4/c5ccccc5c(n41)=N3)c1ccccc1\2)(Oc1ccccc1)Oc1ccccc1 [Compound 3, SubPcBOPO(OPh)2] | 564.5 | 6.96 ×10^−4 Lmol^−1cm^−1 |  | 0.34 | remarkably improved | 
7 | (PhS)3SubPcBOPO(OBu)2 [Compound 26] | 584.0 | 9.95 ×10^−4 Lmol^−1cm^−1 |  | >10 |  | 
8 | (t-Bu)3SubPcBOPOPh2 [Compound 5] | 570.5 | 8.74 ×10^−4 Lmol^−1cm^−1 |  | >10 |  | 
9 | CCCCOP(=O)(OCCCC)OB1n2c3c4ccccc4c2/N=C2N=C(/N=c4/c5ccccc5c(n41)=N3)c1ccccc1\2 [Compound 4, SubPcBOPO(OBu)2] | 562.5 | 7.78 ×10^−4 Lmol^−1cm^−1 |  | >10 | remarkably improved | more than 10 % by weight
10 | (PhS)3SubPcBOPOPh2 [Compound 24] | 584.5 | 7.24 ×10^−4 Lmol^−1cm^−1 |  | >10 |  | 
11 | (t-Bu)3 SubPcBCl [Intermediate Compound 2, reference compound] |  |  |  | >10 |  | 
12 | (i-C5H11S)3SubPcBOPOPh2 [Compound 11] | 586.0 | 7.12 ×10^−4 Lmol^−1cm^−1 |  | >10 |  | 
13 | (i-C5H11S)3SubPcBOPO(OPh)2 [Compound 13] | 586.5 | 8.20 ×10^−4 Lmol^−1cm^−1 |  |  |  | 
